Data on seven compounds can be found in PubChem BioAssay (NCI).

Test systems include MALME-3M melanoma; U251 CNS; TK-10 renal; SF-268 CNS; OVCAR-5 ovarian; HOP-92 NSCLC; BT-549 breast; HCT-15 colon; MOLT-4 leukemia; 786-0 renal.
Holding throughout (test): DTP human tumour cell line panel, 48 h

Values joined by “and” are separate entries in the source; they are usually repeats but may differ in a detail not shown here. Equal entries are not always repeated.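 A five-concentration, 48-hour dose response in 96-well plates underlies each endpoint, interpolated linearly between surrounding concentrations. At the GI50, growth is halved. The concentration for full growth arrest is given as TGI.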 A value given as a limit tells only on which side of the number the result lay.

By GI50 is commonly meant the concentration that inhibits growth by half. Broadly, the TGI is the concentration giving total growth inhibition. Turning to `COC(=O)/C(=C\c1c(-c2ccccc2)[nH]c2ccccc12)S(C)(=O)=O`, the GI50 with MALME-3M melanoma is 12.2 µM; in the test on U251 CNS, 3.62 µM; in the test on TK-10 renal it was 7.71 µM; in the test with SF-268 CNS it was 4.32 µM; in the test with OVCAR-5 ovarian it was 19.6 µM; in the test with HOP-92 NSCLC it was 6.56 µM. The GI50 was 4.29 µM with BT-549 breast, 2.35 µM in the test on HCT-15 colon, 4.72 µM in the test with MOLT-4 leukemia and 7.46 µM in the test with 786-0 renal. Moreover, the TGI in the test on MALME-3M melanoma is 44.2 µM; in the test on U251 CNS, 18.3 µM; with TK-10 renal, over 100 µM; in the test on SF-268 CNS it was 18.3 µM; in the test with OVCAR-5 ovarian, 49.8 µM; with HOP-92 NSCLC it was 50.2 µM. Also, the concentration for total growth inhibition (TGI) in the test on BT-549 breast is 78.8 µM; in the test with HCT-15 colon, 12.1 µM; in the test on MOLT-4 leukemia it was over 100 µM; with 786-0 renal it was 23.9 µM.

As to `Clc1ccc(N2CCC(N3CCCC3)CC2)cc1-c1nc2ccccc2[nH]1`, the GI50 in the test with MALME-3M melanoma is 17.4 µM; in the test on U251 CNS it was 16.7 µM; in the test on TK-10 renal, 20.7 µM; in the test on SF-268 CNS, 15.4 µM; in the test with OVCAR-5 ovarian, 26.5 µM; with HOP-92 NSCLC, 13.4 µM. Moreover, the GI50 is 14.1 µM in the test on BT-549 breast, 18.7 µM in the test on HCT-15 colon, 23.2 µM with MOLT-4 leukemia and 14.7 µM in the test with 786-0 renal. The total growth inhibition concentration (TGI) with MALME-3M melanoma is 33.6 µM; in the test with U251 CNS it was 35.1 µM; in the test on TK-10 renal, 42.2 µM; in the test on SF-268 CNS, 31.8 µM; in the test on OVCAR-5 ovarian, over 69.4 µM; with HOP-92 NSCLC, 42.8 µM. Moreover, the TGI is 31.2 µM in the test with BT-549 breast, 38.5 µM in the test on HCT-15 colon, 67.7 µM in the test with MOLT-4 leukemia and 28.7 µM with 786-0 renal.

With `CCN(CC)CCCNc1[nH]ncc2c(C)c3nc4ccccc4c3cc12`, the GI50 with MALME-3M melanoma was 0.918 µM; with U251 CNS, 0.428 µM; with TK-10 renal, 2.83 µM; in the test with SF-268 CNS it was 0.493 µM and 1.09 µM; with OVCAR-5 ovarian, 0.774 µM; with HOP-92 NSCLC, 0.613 µM. Further, the GI50 with BT-549 breast is 2.08 µM; in the test on HCT-15 colon it was 6.54 µM; in the test on MOLT-4 leukemia it was 0.0288 µM; in the test with 786-0 renal, 0.346 µM. Also, the TGI is 2.34 µM and 3.81 µM in the test on MALME-3M melanoma; 1.71 µM and 3.57 µM with U251 CNS; 12.4 µM and 18.1 µM in the test with TK-10 renal; 3.16 µM and 7.67 µM with SF-268 CNS; 6.81 µM and 16.6 µM with OVCAR-5 ovarian; 3.63 µM and 5.8 µM with HOP-92 NSCLC. The TGI in the test with BT-549 breast was 2.75 µM and 5.17 µM; in the test on HCT-15 colon, 21.4 µM and 36.5 µM; in the test with MOLT-4 leukemia it was 0.183 µM and 0.0447 µM; in the test on 786-0 renal, 1.58 µM and 4.57 µM.

For `CN(C)c1ccc(/C=N/NC(=O)c2cccc3ccccc23)c(Cl)c1`, the GI50 with MALME-3M melanoma was 1.29 µM; in the test with U251 CNS, 1.1 µM; in the test on TK-10 renal, 5 µM; in the test on SF-268 CNS, 9.1 µM; in the test on OVCAR-5 ovarian it was 24.1 µM; in the test on HOP-92 NSCLC, 0.372 µM. For the same compound, the GI50 is 0.733 µM in the test with BT-549 breast, 0.727 µM with HCT-15 colon, 2.31 µM in the test on MOLT-4 leukemia and 5.87 µM in the test with 786-0 renal. The TGI in the test with MALME-3M melanoma was 69.2 µM; in the test on U251 CNS, 26.2 µM; in the test with TK-10 renal, 39.3 µM; in the test on SF-268 CNS, over 100 µM; with OVCAR-5 ovarian, over 100 µM; in the test with HOP-92 NSCLC, 19.6 µM. Further, the TGI with BT-549 breast, in the test on HCT-15 colon, with MOLT-4 leukemia and in the test on 786-0 renal was over 100 µM each time.

As to `COc1ccc(-c2nnc(Nc3nc(O)c(C4=c5cc(F)ccc5=NC4=O)s3)o2)cc1`, the GI50 was 34.5 µM in the test on MALME-3M melanoma; 25.3 µM in the test on U251 CNS; 56.3 µM in the test with TK-10 renal; 67.7 µM in the test with SF-268 CNS; over 100 µM with OVCAR-5 ovarian; 87 µM in the test on HOP-92 NSCLC. The GI50 was 36.5 µM with BT-549 breast, 44.7 µM in the test on HCT-15 colon, 30.4 µM in the test on MOLT-4 leukemia and 23.4 µM in the test on 786-0 renal. In addition, the TGI with MALME-3M melanoma is over 100 µM; in the test with U251 CNS, 61.2 µM; in the test with TK-10 renal it was over 100 µM; in the test with SF-268 CNS, over 100 µM; with OVCAR-5 ovarian, over 100 µM; with HOP-92 NSCLC, over 100 µM. Moreover, the TGI in the test with BT-549 breast was over 100 µM; with HCT-15 colon, over 100 µM; with MOLT-4 leukemia, over 100 µM; in the test on 786-0 renal, 56.3 µM.

For `CCN1C(=O)N(CC)C2C1NN=c1s/c(=C\c3cccc([N+](=O)[O-])c3)c(=O)n12` (stereo not given), the GI50 in the test with MALME-3M melanoma was 0.0812 µM; with U251 CNS, 0.0542 µM; with TK-10 renal, over 100 µM; in the test with SF-268 CNS, 0.293 µM; in the test with OVCAR-5 ovarian, 0.324 µM; with HOP-92 NSCLC, 4.05 µM. Further, the GI50 in the test on BT-549 breast is 0.291 µM; in the test on HCT-15 colon, 0.0486 µM; with MOLT-4 leukemia, 0.24 µM; with 786-0 renal it was 0.143 µM. Besides, the TGI in the test with MALME-3M melanoma, in the test on U251 CNS, in the test with TK-10 renal, in the test with SF-268 CNS, with OVCAR-5 ovarian and with HOP-92 NSCLC was over 100 µM throughout. Further, the TGI in the test on BT-549 breast was 33.5 µM; in the test with HCT-15 colon, over 100 µM; with MOLT-4 leukemia, over 100 µM; with 786-0 renal, over 100 µM.

Consider `N#C/C(=C\c1cccc2cnccc12)N1N=NC2C=CC=CC21` (stereo not given), for which the GI50 in the test on MALME-3M melanoma is 3.24 µM; in the test on U251 CNS it was 3.88 µM; with TK-10 renal it was 3.98 µM; in the test on SF-268 CNS it was 3.06 µM; in the test on OVCAR-5 ovarian, 4.66 µM; in the test on HOP-92 NSCLC, 0.532 µM. Further, the GI50 is 2.97 µM with BT-549 breast, 1.74 µM in the test with HCT-15 colon, 3.21 µM in the test on MOLT-4 leukemia and 3.33 µM with 786-0 renal. Also, the TGI in the test with MALME-3M melanoma was over 100 µM; with U251 CNS it was over 100 µM; with TK-10 renal, 26.3 µM; with SF-268 CNS, over 100 µM; with OVCAR-5 ovarian, over 100 µM; in the test on HOP-92 NSCLC it was 5.13 µM. The TGI in the test with BT-549 breast, in the test on HCT-15 colon, in the test on MOLT-4 leukemia and in the test with 786-0 renal was over 100 µM throughout.
